According to article PMC7545214, “Structural basis for energy transfer in a huge diatom PSI-FCPI supercomplex” (Nature Communications, 2020):

Experiments:
[1] = target: T1, PSI core of the PSI-FCPI supercomplex (Chaetoceros neogracilis, UniProt A0A6J4B0E7+A0A6J4B109); assay: cryo-EM structure, […] Å; format: binding; conditions: two molecules bound to PsaA/B/R
T1 construct: gene psaA; native purification from thylakoids with DDM; PsaS modelled as polyalanine; with Photosystem I iron-sulfur center; Photosystem I reaction center subunit II; Photosystem I reaction center subunit IV; Photosystem I reaction center subunit III; Photosystem I reaction center subunit VIII; Photosystem I reaction center subunit IX; Photosystem I reaction center subunit XI; Photosystem I reaction center subunit XII; Photosystem I subunit PsaR; Photosystem I subunit PsaS
T1 sequence (A0A6J4B0E7 1-733, one chain of several): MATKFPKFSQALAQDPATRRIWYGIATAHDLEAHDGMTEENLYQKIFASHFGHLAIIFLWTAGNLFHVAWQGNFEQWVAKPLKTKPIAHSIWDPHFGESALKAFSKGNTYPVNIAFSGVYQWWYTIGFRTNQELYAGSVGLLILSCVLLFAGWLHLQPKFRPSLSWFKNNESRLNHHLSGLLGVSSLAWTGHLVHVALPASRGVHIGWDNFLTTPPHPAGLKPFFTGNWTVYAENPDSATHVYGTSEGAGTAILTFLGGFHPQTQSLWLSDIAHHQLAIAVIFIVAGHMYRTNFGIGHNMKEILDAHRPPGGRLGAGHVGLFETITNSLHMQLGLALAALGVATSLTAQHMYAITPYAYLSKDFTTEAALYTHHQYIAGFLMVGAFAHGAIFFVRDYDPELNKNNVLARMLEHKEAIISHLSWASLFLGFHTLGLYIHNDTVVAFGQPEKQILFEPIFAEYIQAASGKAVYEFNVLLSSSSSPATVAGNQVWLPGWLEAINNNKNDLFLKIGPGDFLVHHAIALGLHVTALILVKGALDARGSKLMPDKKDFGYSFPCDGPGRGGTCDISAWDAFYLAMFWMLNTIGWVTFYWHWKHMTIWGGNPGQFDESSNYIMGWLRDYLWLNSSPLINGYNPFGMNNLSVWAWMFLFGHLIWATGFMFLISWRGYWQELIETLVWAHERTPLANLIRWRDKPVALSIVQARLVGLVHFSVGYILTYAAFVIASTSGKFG

PsaR = target: T2, PsaR (Chaetoceros neogracilis, UniProt A0A6J4B118); assay: cryo-EM structure, […] Å; format: binding; conditions: one molecule
T2 construct: gene psa28; native, within the PSI-FCPI supercomplex; 89 residues, two transmembrane helices; next to PsaB and FCPI-8/9/10
T2 sequence (A0A6J4B118 51-139): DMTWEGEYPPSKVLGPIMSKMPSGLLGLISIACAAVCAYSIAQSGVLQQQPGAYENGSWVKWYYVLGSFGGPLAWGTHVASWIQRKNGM

Row | SMILES | cryo-EM structure, 2.38 Å ([1]; chain of each in supplement) | cryo-EM structure, 2.38 Å ([1]; one of them on PsaR) | cryo-EM structure, 2.38 Å (PsaR)
1 | CC1=C(C#C/C(C)=C/C=C/C(C)=C/C=C/C=C(C)/C=C/C=C(C)/C=C/[C@@]23O[C@]2(C)C[C@@H](O)CC3(C)C)C(C)(C)C[C@H](O)C1 [diadinoxanthin] | two Ddx and two Fx were identified in the diatom PSI core | – | –
2 | CC(=O)O[C@H]1CC(C)(C)C(=C=C/C(C)=C/C=C/C(C)=C/C=C/C=C(C)/C=C/C=C(\C)C(=O)C[C@@]23O[C@]2(C)C[C@@H](O)CC3(C)C)[C@](C)(O)C1 [fucoxanthin] | – | two Ddx and two Fx were identified in the diatom PSI core | binds one Chl a and one Fx
